Results on one compound are retold here after PMC9862186 (International Journal of Molecular Sciences, 2023).

The nature of series [1]: in vivo. To be noted: Wistar, rat. The procedure: (§1) Each type of formulation was administered to a group of four rats.
(§2) In particular, 4.2 mL of EU-CD formulation were administered to rats (500 mg/kg dose).
(§3) In particular, 320 μL of EU-SL formulation were administered to rats (500 mg/kg dose).
(§4) Free cinnamaldehyde (100 mg) was orally administered by gavage to rats kept fasting since 24 h. In particular, 95 μL of cinnamaldehyde (density = 1.05 g/mL) were dissolved in 905 μL of corn oil and administered to rats (400 mg/kg dose).
(§5) The solid AC-GN formulation (14% w/w cinnamaldehyde) was mixed with palatable food in order to induce their oral intake by the rats kept fasting since 24 h. In particular, the rats assumed a dose of 100 mg of cinnamaldehyde (400 mg/kg) contained in 714 mg of AC-GN.
(§6) After the administrations, blood (100 μL) and CSF samples (50 μL) were serially collected at fixed time points from each rat and treated as described above in order to quantify the compounds.
In particular, all the AUC values referred to the bloodstream were calculated by the trapezoidal method within the last time point detected, and the remaining area was obtained as the ratio between the compound concentration detected at the last time point and the elimination constant (kel), which was obtained from the slope of the semilogarithmic plots (−slope × 2.3). The clearance (Cl) and distribution volume (Vd) values were calculated according to the non-compartmental model as the ratios “dose/AUC” and “Cl/kel”, respectively, where kel is the elimination constant obtained by the slope of semilogarithmic plot.

For series [2] the following is noted: rats, cited from earlier work.
Series [3] is described as follows: in vivo. To be noted: rat, po. The procedure:
At the end of the infusions and at fixed time points, CSF samples (50 μL) were withdrawn and blood samples (100 μL) were collected. The CSF was withdrawn using the cisternal puncture method described by van den Berg et al., which requires a single needle stick and allows the collection of serials (40–50 μL) CSF samples that are virtually blood-free. A total volume of about a maximum of 150 μL of CSF/rat (i.e., three 50 μL samples/rat) was collected during the experimental session, choosing the time points (n = 3–5, taking into account a maximum of three collections per rat) in order to allow the restoring of the CSF physiological volume.
as §1, §2, §3, §4, §5, §6

In a further series the test system is PC12 cells. Kind of series: Dopamine release from neuronal differentiated PC12 cells (ELISA). Type of series: cell-based, rat. The procedure:
PC12 cell line (RRID:CVCL_0481), derived from rat adrenal gland pheochromocytoma, was a kind gift from Dr Federica Brugnoli from the Department of Translational Medicine, University of Ferrara, Ferrara (Italy). The cells were grown in RPMI-1640 (HiGlutaXL) medium (Microtech, Naples, Italy), supplemented with 100 µg/mL streptomycin and 100 IU/mL penicillin, 10% horse serum (HS), and 5% fetal bovine serum (FBS). PC12 cells were gently removed from the 4 µg/cm^2 collagen IV-coated flask with a rubber scraper, transferred as cell suspension into a Falcon tube and resuspended through a sterile tip to avoid any clumping, then split into separate flasks twice weekly. To differentiate neuronal phenotypes, PC12 cells were seeded in 4 µg/cm^2 collagen IV-coated 12-well plates at a density of 5000 cells/well, and they were then left to adhere to the well for 24 h. […] All the proliferative and differentiated cultures were maintained at 37 °C in a humidified 5% CO2 atmosphere.
PC12 cells differentiated to neuronal-like phenotype in collagen IV-treated 12-well plates, were first synchronized all to the same circadian phase and cell cycle by a serum shock (50% HS and 50% DMEM HiGlutaXL) for 2 h at 37 °C [49] to achieve a synchronous release of dopamine. Synchronization medium was then aspirated off, cells were washed with 3 × 1 mL and equilibrated for 15 min at 37 °C in 1 mL of Krebs Ringer HEPES (KRH) physiological buffer, following the recipe of Mount et al. (25 mM HEPES/Tris, pH 7.4, 1.2 mM KH2PO4, 125 mM NaCl, 4.8 mM KCl, 1.2 mM MgSO4, 2.2 mM CaCl2, 5.6 mM glucose, 1.0 mM ascorbic acid, 10 µM pargyline, 1.0 µM nomifensine). […] To remove cell debris, all samples of 1 mL incubation KRH at the end of treatments were centrifuged at 1000× g for 20 min at 4 °C and stored at −20 °C until dopamine levels were determined by ELISA assay.
Dopamine levels in 1 mL incubation KRH buffer were detected by means of an ELISA assay, based on the […] ELISA principle for detection of dopamine, following manufacturer’s instructions (IBL International, Hamburg, Germany–catalog no: RE59161; purchased from Tecan Italia S.r.I, Milan, Italy). After the substrate reaction, the intensity of the developed color was proportional to the amount of dopamine, detected at 450 nm using a microplate reader spectrophotometer (Sunrise® Microplate Reader, Tecan Trading AG, Männedorf, Switzerland). Results of samples were determined directly using the standard curve. Results are presented as mean ± SE values of four independent experiments. Data were plotted and analyzed with GraphPad software (Prism, version 7.0, San Diego, CA, USA).
(In general: ELISA stands for enzyme-linked immunosorbent assay.)

The subject of a further series is rats. To be noted: cited from earlier work.

The structures appear in SMILES notation.

The bioavailability is dose-corrected exposure relative to a reference, in per cent. Low values mean poor availability, high ones good availability. For orientation: AUC means the area under the concentration-time curve, a measure of exposure. Read a low AUC as less exposure. With `C=CCc1ccc(O)c(OC)c1` [Eugenol], the “Tmax: time of Cmax in the bloodstream” value in “in vivo [1]” is given as 10 min. The compound further had a bioavailability in the series “in vivo [1]” (po, F: absolute bioavailability, oral versus iv AUC normalized to dose) of 4%. Besides, in series [2] (iv eugenol), the “t1/2 of the second elimination phase” value was 13 to 20 min. The Cmax entry in series [2] (oral 40 mg/kg) is recorded as “about 0.25 μg/mL”. Moreover, in “in vivo [3]”, the AUC was 516 ng·h/mL and the “Tmax: time of Cmax in CSF” value was 20 min. Moreover, the “effect on dopamine release over pre-treatment baseline” value with PC12 cells (25 µM, 5, 15, 30, 60 and 120 min, baseline 393 ± 12 pg/mL, p < 0.001 at 5, 15, 120 min, p < 0.05 at 30, 60 min) is “statistically significant increase”. In the series with PC12 cells (25 µM, time course 5, 15, 30, 60, 120 min, U-shaped curve), the “incubation time with the higher effect on dopamine release” value was determined as 120 min. Further, the “concentration giving the lower effect on dopamine release, still significant vs. basal” value with PC12 cells (0.5, 1, 2, 5 and 25 µM for 5 min, basal release 947 ± 102 pg/mL) is recorded as 5 µM. Further, the “oral LD50” value with rats (oral) is “about 2 g/kg”. For the same compound, the “intravenous doses inducing anesthetic effects without relevant side effects” value in the series on rats (rat, in vivo, iv) is “up to 60 mg/kg”.
